Measurements published in patent US9512128B2 (BAYER CROPSCIENCE AG, priority 2012, dated 2016).
Read-outs that look alike come from different tables or passages of the source.

Experiments:
[1] = log P by HPLC on reversed-phase columns (C 18), EEC directive 79/831 Annex V.A8; format: physicochemical; conditions: for logP[a]: method [a]; for logP[b]: method [b]; for chromatographic logP: reversed-phase C18 HPLC column
Method in brief: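 Measured by reversed-phase C18 HPLC (LC-MS) with a linear 10→95% acetonitrile gradient. Acidic: pH 2.7, 0.1% formic acid. Neutral: pH 7.8, 0.001 M ammonium bicarbonate.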

[2] = test system: larvae of the mustard beetle (Phaedon cochleariae); assay: Phaedon cochleariae spray test (PHAECO); format: in vivo; conditions: application rate 500 g/ha, after 7 days, Chinese cabbage leaf discs
Procedure: 2. Phaedon cochleariae Spray Test (PHAECO)
(§1) • Solvents: 78.0 parts by weight of acetone • 1.5 part by weight of dimethylformamide • Emulsifier: 0.5 part by weight of alkylaryl polyglycol ether
(§2) To produce a suitable preparation of active compound, 1 part by weight of active compound is mixed with the stated amounts of solvents and emulsifier, and the concentrate is diluted with emulsifier-containing water to the desired concentration.
After 7 days, the efficacy in % is determined. 100% means that all of the beetle larvae have been killed; 0% means that none of the beetle larvae have been killed.

[3] = test system: greenhouse red spider mite (Tetranychus urticae); assay: Tetranychus urticae spray test, OP-resistant (TETRUR); format: in vivo; conditions: after 6 days, bean leaf discs
Procedure: 4. Tetranychus urticae Spray Test, OP-Resistant (TETRUR)
as §1, §2
Discs of bean leaves (Phaseolus vulgaris) which are infested by all stages of the greenhouse red spider mite (Tetranychus urticae) are sprayed with an active compound preparation of the desired concentration.
After 6 days, the efficacy in % is determined. 100% means that all of the spider mites have been killed; 0% means that none of the spider mites have been killed.

[4] = test system: southern root-knot nematode (Meloidogyne incognita); assay: Meloidogyne incognita test (MELGIN); format: in vivo; conditions: application rate 20 ppm, after 14 days, lettuce
Procedure: 5. Meloidogyne incognita Test (MELGIN) • Solvent: 125.0 parts by weight of acetone To prepare a suitable active compound preparation, 1 part by weight of active compound is mixed with the stated amount of solvent and the concentrate is diluted with water to the desired concentration. Vessels are filled with sand, active compound solution, an egg/larvae suspension of the southern root-knot nematode (Meloidogyne incognita) and lettuce seeds. The lettuce seeds germinate and the plants develop. On the roots, galls are formed. After 14 days, the nematicidal effect in % is determined by the formation of galls. 100% means that no galls have been found; 0% means that the number of galls on the treated plants corresponds to the untreated control.

[5] = pH 2.7, acidic range, pH 2.7, 0.1% aqueous formic acid / acetonitrile, read-out: log P[a]
[6] = pH 2.7, method [a], read-out: logP[a]
[7] = pH 7.8, method [b], read-out: logP[b]
[8] = pH 7.8, neutral range, pH 7.8, 0.001 molar aqueous ammonium bicarbonate / acetonitrile, read-out: log P[b]

Row | logP[a] [1] | logP[b] [1] | Structure (SMILES) | efficacy in % (beetle larvae killed) [2] | efficacy in % (spider mites killed) ([3]; application rate 500 g/ha) | nematicidal effect in % (formation of galls) [4] | other results
1 | 1.52 | 1.50 | Cc1c2c(=O)n(-c3ccc(C#N)c([S+]([O-])CC(F)(F)F)c3)cnc2nn1C (racemic) [Compound 51] | 100% | – | – | –
2 | – | – | Cc1cc(F)c(-n2cnc3c(cnn3C)c2=O)cc1SCC(F)(F)F [Compound 1, 5-{2-Fluoro-4-methyl-5-[(2,2,2-trifluoroethyl)sulphanyl]phenyl}-1-methyl-1,5-dihydro-4H-pyrazolo[3,4-d]pyrimidin-4-one] | 100% | 90% | – | chromatographic logP [1, 5]: 2.66; chromatographic logP [1, 6]: 2.66; chromatographic logP [1, 7]: 2.65; chromatographic logP [1, 8]: 2.65
3 | 2.30 | 2.24 | Cc1nn(C)c2ncn(-c3ccc(C#N)c(SCC(F)(F)F)c3)c(=O)c12 [Compound 34] | 100% | – | – | –
4 | 2.54 | 2.52 | Cc1cc(F)c(-n2cnc3scnc3c2=O)cc1SCC(F)(F)F [Compound 60] | 100% | – | – | –
5 | 2.70 | 2.67 | N#Cc1cc(F)c(-n2cnc3sccc3c2=O)cc1SCC(F)(F)F [Compound 82] | 100% | – | – | –
6 | – | – | Cc1ccc(-n2cnc3sccc3c2=O)cc1[S+]([O-])CC(F)(F)F (stereo not drawn) [Compound 86, 3-{4-Methyl-3-[(2,2,2-trifluoroethyl)sulphinyl]phenyl}thieno[2,3-d]pyrimidin-4(3H)-one] | – | 90% | 90% | chromatographic logP [1, 5]: 1.94; chromatographic logP [1, 6]: 1.94; chromatographic logP [1, 7]: 1.93; chromatographic logP [1, 8]: 1.93
7 | 2.07 | 2.00 | N#Cc1ccc(-n2cnc3sccc3c2=O)cc1[S+]([O-])CC(F)(F)F (stereo not drawn) [Compound 88] | 100% | – | – | –
8 | 1.89 | 1.87 | N#Cc1ccc(-n2cnc3sccc3c2=O)cc1[S+]([O-])CC(F)(F)F (stereo not drawn) [Compound 95] | 100% | – | – | –
9 | 1.79 | 1.75 | N#Cc1ccc(-n2cnc3ccsc3c2=O)cc1[S+]([O-])CC(F)(F)F (stereo not drawn) [Compound 105] | 100% | – | – | –
10 | 2.07 | 2.03 | O=c1c2sccc2ncn1-c1ccc(Cl)c([S+]([O-])CC(F)(F)F)c1 (stereo not drawn) [Compound 106] | 83% | – | – | –
11 | – | – | Cc1cc(F)c(-n2cnc3cnn(CC4CC4)c3c2=O)cc1SCC(F)(F)F [Compound 167] | – | 100% | 100% | –
12 | – | – | Cc1cc(F)c(-n2cnc3cnn(CC4CC4)c3c2=O)cc1[S+]([O-])CC(F)(F)F (stereo not drawn) [Compound 169] | – | 100% | 100% | –
13 | – | – | Cc1cc(F)c(-n2c(C)nc3cnn(CC4CC4)c3c2=O)cc1[S+]([O-])CC(F)(F)F (stereo not drawn) [Compound 170] | – | 100% | 100% | –
14 | – | – | Cc1cc(F)c(-n2cnc3c(C)nsc3c2=O)cc1[S+]([O-])CC(F)(F)F (stereo not drawn) [Compound 181] | – | 100% | 90% | –
15 | – | – | Cc1cc(F)c(-n2nnc3c(C)nsc3c2=O)cc1[S+]([O-])CC(F)(F)F (stereo not drawn) [Compound 183] | 100% | 90% | – | –
16 | – | – | Cc1cc(F)c(-n2c(C)nc3ncsc3c2=O)cc1[S+]([O-])CC(F)(F)F (stereo not drawn) [Compound 188] | – | 100% | 90% | –
17 | – | – | Cc1cc(F)c(-n2cnc3nsc(C(C)(C)C)c3c2=O)cc1SCC(F)(F)F [Compound 191] | 100% | 100% | – | –
18 | – | – | Cc1cc(F)c(-n2cnc3onc(C)c3c2=O)cc1SCC(F)(F)F [Compound 194] | – | 90% | 100% | –
19 | – | – | CCc1noc2ncn(-c3cc(SCC(F)(F)F)c(C)cc3F)c(=O)c12 [Compound 195] | – | 90% | 90% | –
20 | – | – | Cc1cc(F)c(-n2cnc3onc(C)c3c2=O)cc1[S+]([O-])CC(F)(F)F (stereo not drawn) [Compound 196] | – | – | 100% | efficacy in % (spider mites killed) ([3]; application rate 100 g/ha): 90%
21 | – | – | CCc1noc2ncn(-c3cc([S+]([O-])CC(F)(F)F)c(C)cc3F)c(=O)c12 (stereo not drawn) [Compound 198] | – | 90% | 100% | –
22 | – | – | Cc1cc(F)c(-n2cnc3onc(C(F)(F)F)c3c2=O)cc1[S+]([O-])CC(F)(F)F (stereo not drawn) [Compound 199] | – | 90% | 100% | –
23 | – | – | Cc1cc(F)c(-n2cnc3onc(C(C)C)c3c2=O)cc1[S+]([O-])CC(F)(F)F (stereo not drawn) [Compound 200] | – | 100% | 100% | –
24 | – | – | CCc1nsc2ncn(-c3cc(SCC(F)(F)F)c(C)cc3F)c(=O)c12 [Compound 201] | 100% | 90% | – | –
25 | – | – | Cc1cc(F)c(-n2cnc3snc(C)c3c2=O)cc1SCC(F)(F)F [Compound 202] | – | 90% | 90% | –
26 | – | – | Cc1cc(F)c(-n2c(C)nc3snc(C)c3c2=O)cc1SCC(F)(F)F [Compound 209] | – | 90% | 100% | –
27 | – | – | Cc1cc(F)c(-n2c(C)nc3snc(C)c3c2=O)cc1[S+]([O-])CC(F)(F)F (stereo not drawn) [Compound 210] | – | 100% | 100% | –
28 | – | – | Cc1cc(F)c(-n2cnc3csnc3c2=O)cc1[S+]([O-])CC(F)(F)F (stereo not drawn) [Compound 212] | – | 90% | 100% | –

Row | Structure (SMILES) | logP[a] [1] | logP[b] [1] | efficacy in % (beetle larvae killed) [2] | efficacy in % (spider mites killed) ([3]; application rate 500 g/ha) | nematicidal effect in % (formation of galls) [4] | other results
29 | Cc1nn(C)c2ncn(-c3ccc(Cl)c([S+]([O-])CC(F)(F)F)c3)c(=O)c12 (stereo not drawn) [Compound 37] | 2.01 | 1.98 | – | 90% | 80% | –
30 | Cc1ccc(-n2cnc3nn(C)c(C)c3c2=O)cc1[S+]([O-])CC(F)(F)F (stereo not drawn) [Compound 47] | 1.54 | 1.51 | – | 90% | 80% | –
31 | Cc1nc2c(=O)n(-c3cc(SCC(F)(F)F)c(C)cc3C)cnc2s1 [Compound 72] | 2.92 | 2.86 | – | 90% | 90% | –
32 | Cc1nc2c(=O)n(-c3cc([S+]([O-])CC(F)(F)F)c(C)cc3C)cnc2s1 (stereo not drawn) [Compound 75] | 1.84 | 1.81 | – | 90% | 80% | –
33 | Cc1cc(F)c(-n2cnc3ncsc3c2=O)cc1SCC(F)(F)F [Compound 78] | 2.51 | 2.48 | – | 90% | 90% | –
34 | CC(C)(C)c1snc2ncn(-c3ccc(Cl)c([S+]([O-])CC(F)(F)F)c3)c(=O)c12 (stereo not drawn) [Compound 118] | 3.14 | 3.08 | – | 90% | 90% | –
